Source: PubChem BioAssay (NCI)
Values joined by “and” are separate entries in the source; they are usually repeats but may differ in a detail not shown here. Equal entries are not always repeated.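 The compound was tested at five concentrations on cells cultured in 96-well plates, with a 48-hour exposure period. The concentration for 50% growth inhibition is given as GI50. At the TGI there is no net growth.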

What was measured:
Assay in all cases: NCI anticancer screen, dose series, 48 h
M19-MEL melanoma = tested on: M19-MEL melanoma
MALME-3M melanoma = tested on: MALME-3M melanoma
KM20L2 colon = tested on: KM20L2 colon
NCI-H522 lung = tested on: NCI-H522 lung
HOP-62 NSCLC = tested on: HOP-62 NSCLC
OVCAR-8 ovarian = tested on: OVCAR-8 ovarian
SNB-78 CNS = tested on: SNB-78 CNS
HOP-18 NSCLC = tested on: HOP-18 NSCLC
HS 578T breast = tested on: HS 578T breast
T-47D breast = tested on: T-47D breast

Compound	GI50 (M19-MEL melanoma) [µM]	TGI (M19-MEL melanoma) [µM]	GI50 (MALME-3M melanoma) [µM]	TGI (MALME-3M melanoma)	GI50 (KM20L2 colon) [µM]	TGI (KM20L2 colon)	GI50 (NCI-H522 lung) [µM]	TGI (NCI-H522 lung)	GI50 (HOP-62 NSCLC) [µM]	TGI (HOP-62 NSCLC)	GI50 (OVCAR-8 ovarian) [µM]	TGI (OVCAR-8 ovarian)	TGI (SNB-78 CNS)	TGI (HOP-18 NSCLC)	GI50 (HS 578T breast) [µM]	TGI (HS 578T breast) [µM]	GI50 (T-47D breast) [µM]	TGI (T-47D breast) [µM]	GI50 (SNB-78 CNS) [µM]	GI50 (HOP-18 NSCLC) [µM]
CC(=O)[CH-]C(=O)c1ccccc1.CC(=O)[CH-]C(=O)c1ccccc1.[O]=[U+2]=[O]	28.9	> 100	21.8	54.6 µM	37.1	> 100 µM	65.2	> 100 µM	23.8	66.2 µM	35	> 100 µM	–	–	–	–	–	–	–	–
COC(=O)C(CC=O)C(=O)C(=O)Nc1cccc(C(F)(F)F)c1 (stereo not given)	–	> 100	–	> 100 µM	–	> 100 µM	–	> 100 µM	–	> 100 µM	–	> 100 µM	> 100 µM	> 100 µM	–	–	–	–	–	–
COc1cccc(-c2nn(-c3ccccc3)cc2-c2ccnc(NCCNC(=O)Nc3ccc(Cl)c(Cl)c3)c2)c1	–	–	1.89	4.66 µM	–	–	2.18	5.96 µM	3.39	12.7 µM	2.98	11.2 µM	–	–	1.96	5.19	3.85	24.7	–	–
Clc1ccc2c(Cl)ncnc2c1	–	> 100	–	> 100 µM	–	> 100 µM	–	> 100 µM	–	> 100 µM	–	> 100 µM	–	–	–	–	–	–	–	–
Cc1ccc(NCSc2ccc(Cl)cc2)cc1	–	–	> 100	> 100 µM	–	–	21.9	> 100 µM	30.7	> 100 µM	> 100	> 100 µM	–	–	24.7	> 100	9.55	> 100	–	–
Oc1cccc(-c2nc3ccccc3s2)c1	–	–	–	31.1 µM	–	–	–	51 µM	–	> 100 µM	–	> 100 µM	–	–	–	44.4	–	56.8	–	–
COc1ccccc1C(=O)c1cnc(NC2CCN(S(C)(=O)=O)CC2)nc1N	–	–	> 16.4	> 25 µM	–	–	> 25	> 25 µM	7.73	> 25 µM	6.97	> 25 µM	–	–	11.4	> 25	8.8	> 25	–	–
CC[C@]12C=CCN3CC[C@]4(C(=C(C(=O)OC)C1)Nc1cc(O)ccc14)[C@@H]32	–	–	11.8	26.3 µM	–	–	15.1	55.2 µM	17.2	38.9 µM	24.5	68.8 µM	–	–	15.5	58.1	22.4	87.7	–	–
CN1CCCC1c1cccnc1.O=C(O)c1ccccc1O.O=C([O-])c1ccccc1[OH2+].O=C([O-])c1ccccc1[OH2+].O=C([O-])c1ccccc1[OH2+].[Mn+2] (stereo not given)	–	–	17.8	52.2 µM	–	–	12.1	27.7 µM	> 100	> 100 µM	> 100	> 100 µM	–	–	2.43	> 100	> 100	> 100	–	–
N#Cc1c2c(c(N=[N+]=[N-])n3c1nc1ccccc13)CCCC2	–	6.1	–	5.96 µM	–	4.6 µM	–	–	–	31 µM	–	3.09 µM	11.5 µM	–	–	–	–	–	–	–
COC(=O)/C(=N\NC(=O)c1ccccc1O)C(C#N)c1ccc(Cl)cc1 (stereo not given)	–	> 100	–	> 100 µM	–	> 100 µM	–	72.3 µM	–	95.8 µM	–	> 100 µM	> 100 µM	> 100 µM	–	–	–	–	–	–
COC(=O)[C@H](Cc1ccccc1)NC(=O)c1csc([C@@H](C[C@H](C(C)C)N(C)C(=O)[C@@H](NC(=O)[C@H]2CCCCN2C)C2CC2)OC(C)=O)n1	–	–	2.16	> 25 µM	–	–	0.00654	0.3 µM	0.0749	> 25 µM	0.0898	> 25 µM	–	–	0.0245	14.5	> 25	> 25	–	–
O=C(Oc1c(I)ccccc1=O)c1ccc([N+](=O)[O-])cc1	–	–	–	30.7 µM	–	–	–	36.7 µM	–	> 100 µM	–	65.1 µM	–	–	–	68.2	–	1.33	–	–
CN1CC2(CCCCC2)C(O)C12C=CCCC2 (stereo not given)	–	> 100	–	> 100 µM	–	> 100 µM	–	> 100 µM	–	> 100 µM	–	> 100 µM	> 100 µM	–	–	–	–	–	–	–
O=C(OCc1ccccc1CN1CCOCC1)c1ccc(Br)cc1	–	–	–	60.4 µM	–	–	–	> 100 µM	–	> 100 µM	–	> 100 µM	–	–	–	> 100	–	> 100	–	–
O=C1OCC(C(=O)c2cccc(O)c2)C1=O (stereo not given)	–	> 100	–	> 100 µM	–	> 100 µM	–	> 100 µM	–	> 100 µM	–	> 100 µM	> 100 µM	> 100 µM	–	–	–	–	–	–
O=C1c2c(O)cccc2C(C(=O)CCCCC(=O)C2c3cccc(O)c3C(=O)c3c(O)cccc32)c2cccc(O)c21	–	–	–	4.38 µM and 2.92 µM	1.58	4.39 µM and 5.46 µM	1.25	1.07 µM and 2.92 µM	1.05	1.66 µM and 2.52 µM	1.53	2.16 µM and 5.26 µM	1.23 µM and 5.93 µM	1.79 µM and 1.88 µM	–	0.951	–	0.919	1.97	0.996
CC1=CC2=C(C)C3(CC3)[C@@](C)(O)C(=O)C2=C1	–	0.732	–	0.424 µM	–	0.498 µM	–	0.296 µM	–	0.356 µM	–	0.706 µM	> 0.631 µM	0.528 µM	–	–	–	–	–	–
CCOC(=O)c1cnc2[nH]c(=O)c3ccccc3n2c1=O	–	> 100	–	> 100 µM	–	> 100 µM	–	> 100 µM	–	> 100 µM	–	> 100 µM	> 100 µM	> 100 µM	–	–	–	–	–	–
O=C1OC(c2ccc(O)cc2)(c2ccc(O)cc2)c2cccc3cccc1c23	–	–	20	43.4 µM	–	–	14	33.5 µM	17.3	38.1 µM	16.7	44.1 µM	–	–	0.249	20.9	0.118	12	–	–
CCC1OCCN1C(C)C (stereo not given)	–	> 100	–	> 100 µM	–	> 100 µM	–	> 100 µM	–	–	–	> 100 µM	> 100 µM	–	–	–	–	–	–	–
Cn1c(=O)c2c3oc(=O)cc(O)c3c(=O)n3c4ccccc4n(c1=O)c23	–	> 100	–	> 100 µM	–	–	–	–	–	> 100 µM	–	> 100 µM	> 100 µM	> 100 µM	–	–	–	–	–	–
